From US7150972B2, “Sterol carrier protein-2 from the mosquito, Aedes aegypti” (Wisconsin Alumni Research Foundation, priority 2003, dated 2006)
Values joined by “and” are separate entries in the source; they are usually repeats but may differ in a detail not shown here. Equal entries are not always repeated.

Assays:
AeSCP-2 gene expression = assay: In vitro tissue culture of 4th instar gut and carcass with 20E; dot blotting and western blotting; assay type: cell-based, Aedes aegypti
Protocol: To investigate whether ecdysteroids affect AeSCP-2 expression, 12 hour-old 4th instars were dissected to separate the head, gut, and carcass. Gut and carcass were cultured in the same dish with and without 20E (60 ng/ml) for 6 hours. […] As expected, at the protein level AeSCP-2 increased in 20E-treated gut tissue cultures (FIG. 7A, inset, lane 5).
Northern and dot blotting analysis—Fifteen to twenty microgram of total RNA from indicated stages was used in Northern blotting analysis as described (Ausubel et al., 1993). After electrophoresis, RNAs in the formaldehyde-agarose gel was blotted onto positively charged Nylon membrane (Millipore, Bedford, Mass.). For dot blotting analysis, 5 ug of total RNA from three parallel samples (10 larvae per sample) of each developmental time point were blotted on to positively charged Nylon membrane as described (Millipore). The membranes were baked at 80° C. under vacuum for 1 hour and UV cross-linked (Stratagene Cloning system, La Jolla, Calif.).
Western blotting analysis—Intact animals, dissected tissues and cultured tissues were homogenized in lysis buffer (0.25M TRIS®HCl (hydroxymethyl aminomethane hydrochloride), pH 8.0/0.2% TRITON®X-100 (octyl phenol ethoxylate) 1 mM dithioerythritol/5 mM EDTA/10 mM β-mercaptoethanol/1 mM phenylmethylsulfonyl fluoride/protease inhibitor cocktail (Sigma)), and centrifuged at 12000×g at 4° C. for 15 minutes. Supernatants containing solvable proteins were stored at −80° C. Protein concentrations were determined using a BCA kit (Pierce, Rockford, Ill.). […]
In vitro tissue culture—Staged 4th instars were dissected in insect saline (Riddiford et al., 1979) to obtain gut and carcass for in vitro tissue culture study. […] Pure 20-hydroxyecdysone (Sigma) was dissolved in 95% ethanol, and the concentration was determined by UV spectrum absorption analysis at 243 nm wavelength (20E mg/ml=(OD 243×480)/ε and the ε=12,670). […] Total RNA was extracted from cultured tissues and analyzed by Dot blotting. […] Soluble proteins were extracted from cultured tissues and analyzed by western blotting.

recombinant AeSCP-2 = recombinant AeSCP-2 (Aedes aegypti, UniProt Q86PR3); assay: Radiolabeled cholesterol binding assay (Lipidex-1000), Scatchard plot; details: [3H]cholesterol, rAeSCP-2 8 pM per assay, 4° C. overnight, N=6
Source text: Whether AeSCP-2 binds cholesterol with high affinity was examined using radiolabeled cholesterol and recombinant AeSCP-2 (rAeSCP-2). Lipidex-1000 has been used for studying lipid/sterol binding proteins over decades and is proven to be a reliable assay (Glatz and Veerkamp, 1983; Colles et al., 1995). The recombinant protein was purified as GST-tagged fusion protein (FIG. 5, lanes 2 and 5) on the GST affinity column and the GST-tag was removed using Thrombin (FIG. 5, lane 4). After 16-hour Thrombin digest, there was still considerable amount of uncut fusion proteins (FIG. 5, lane 5) that may be resulted from insufficient concentration of Thrombin in the column (400 units/10 ml column). Further digest with increased level of Thrombin did completely remove the GST tag (data not shown). To optimize the condition for binding assay, varied concentrations of rAeSCP-2 was tested with 0.07 to 0.1 pM of radiolabeled cholesterol per assay. […]
Radiolabeled cholesterol binding assay—The binding of radiolabeled cholesterol to AeSCP-2 was measured based on the Lipidex-1000 assay (Glatz and Veerkamp, 1983) optimized for AeSCP-2. […]
Standard cholesterol solution was made from pure cholesterol (Sigma) in 95% ethanol at concentrations 0.04 nM to 20 uM. […] The slope=−Ka and Kd was calculated as […].

SCP-2 = details: vertebrate SCP-2, Gallegos et al., 2001; read-out: Kd values of SCP-2 cholesterol-binding; cited from earlier work

Row | SMILES | increase of AeSCP-2 mRNA level in cultured carcass (AeSCP-2 gene expression; 20E 60 ng/ml, 6 hours, carcass of 12 hour-old 4th instars) | increase of AeSCP-2 mRNA level in cultured gut (AeSCP-2 gene expression; 20E 60 ng/ml, 6 hours, gut of 12 hour-old 4th instars) [fold] | AeSCP-2 protein level in gut tissue cultures (AeSCP-2 gene expression; 20E-treated gut, western blot, FIG. 7 inset lane 5) | Kd (recombinant AeSCP-2) | Kd (SCP-2) [nM]
1 | CC(C)(O)CC[C@@H](O)[C@](C)(O)[C@H]1CC[C@@]2(O)C3=CC(=O)[C@@H]4C[C@@H](O)[C@@H](O)C[C@]4(C)[C@H]3CC[C@]12C [20E, 20-hydroxyecdysone] | not in the carcass | 2 | increased |  | 
2 | CC(C)CCC[C@@H](C)[C@H]1CC[C@H]2[C@@H]3CC=C4C[C@@H](O)CC[C@]4(C)[C@H]3CC[C@]12C [cholesterol] |  |  |  | 5.5 nM and 5.6 nM | 4 to 2600
